In patent publication US6063789A, “Aminoisoquinolines and aminotheinopyridine derivatives and their use as anti-inflammatory agents” (priority 1996, dated 2000):
Counter-ions that a name gives are not always drawn.

Columns and labels:
[1] = cited from J Med. Chem., vol 20, No 3, March 1977, pp 449 to 452; cited from earlier work
[2] = target: T1, inducible isoform of the enzyme nitric oxide synthase (NOS) (Mus musculus, UniProt P29477); test: nitric oxide synthetase activity screen (conversion of 3H-L-arginine to 3H-L-citrulline by lysate of induced J774A-1 macrophages); format: biochemical; conditions: lysate of LPS/IFNg-induced murine macrophage J774A-1 cells; 1 hour at room temperature; read-out: IC50 (the concentration of drug substance which gives 50% enzyme inhibition in the assay)
T1 construct: Nitric oxide synthase is produced by cells in response to interferon-g (IFNg) and lipopolysaccharide (LPS); endogenous in cells; host or cells: J774A-1 murine macrophage cell line, induced with LPS and IFN-gamma; crude cell lysate
Procedure: The activity of compounds according to the invention was tested in the following screen.
The activity of compounds of formula I, or a pharmaceutically acceptable salt, enantiomer or tautomer thereof, may be screened for nitric oxide synthetase activity by a procedure based on that of Forstennann et al. (1992) Eur. J. Pharm. […] Nitric oxide synthetase converts ^3 H-L-arginine to ^3 H-L-citrulline which can be separated by cation exchange chromatography and quantified by liquid scintillation counting.
Enzyme is prepared, after induction, from the cultured murine macrophage cell line J774A-1 (obtained from the laboratories of the Imperial Cancer Research Fund). J774A-1 cells are cultured in Dulbeccos Modified Eagles Medium (DMEM) supplemented with 10% foetal bovine serum, 4 mM L-glutamine and antibiotics (100 units/ml penicillin G, 100 mg/ml streptomycin & 0.25 mg/ml amphotericin B). Cells are routinely grown in 225 cm^2 flasks containing 35 ml medium kept at 37° C. and in a humidified atmosphere containing 5% CO2. Nitric oxide synthase is produced by cells in response to interferon-g (IFNg) and lipopolysaccharide (LPS). The medium from confluent culture flasks is removed and replaced with 25 ml (per flask) of fresh medium containing 1 mg/ml LPS and 10 units/ml IFNg. After a period of 17-20 hours in culture, harvesting of cells is accomplished by scraping the cell sheet from the flask surface into the culture medium. Cells are collected by centrifugation (1000 g for 10 minutes) and lysate prepared by adding to the cell pellet a solution containing 50 mM Tris-HCl (pH 7.5 at 20° C.), 10% (v/v) glycerol, 0.1% (v/v) Triton-X-100, 0.1 mM dithiothreitol and a cocktail of protease inhibitors comprising leupeptin (2 mg/ml), soya bean trypsin inhibitor (10 mg/ml), aprotinin (5 mg/ml) & phenylmethylsulphonyl fluoride (50 mg/ml).
For the assay, 25 μl substrate cocktail (50 mM Tris-HCl (pH 7.5 at 20° C.), 400 μM NADPH, 20 μM flavin adenine dinucleotide, 20 μM flavin mononucleotide, 4 μM tetrahydrobiopterin, 12 μM L-arginine and 0.025 mCi L-[^3 H] arginine) is added to wells of a 96 well filter plate (0.45 μM pore size) containing 25 μl of a solution of test compound in 50 mM Tris-HCl. The reaction is started by adding 50 μl of cell lysate (prepared as above) and after incubation for 1 hour at room temperature is terminated by addition of 50 μl of an aqueous solution of 3 mM nitroarginine and 21 mM EDTA.
Labelled L-citrulline is separated from labelled L-arginine using Dowex AG-SOW. […] After allowing the samples to dry the L-citrulline is quantified by scintillation counting.
Compounds are tested at a range of concentrations and from the inhibitions obtained IC50 values are calculated.

Structure (SMILES)	antihypertensive activity [1]	IC50 [2]
NC1=NCCc2ccccc21 [1-amino-3,4-dihydroisoquinoline]	has antihypertensive activity	
NC1=NC(c2ccccc2)Cc2ccccc21 (centres unmarked) [Example 2, 1-Amino-3-phenyl-3,4-dihydroisoquinoline hydrochloride]		< 25 µM
NC1=NC(c2nccs2)Cc2ccccc21 (centres unmarked) [Example 46, 1-Amino-3-(2-thiazolyl)-3,4-dihydroisoquinoline hydrochloride]		< 25 µM
C#CC1Cc2ccccc2C(N)=N1 (centres unmarked) [Example 41, 1-Amino-3-ethynyl-3,4-dihydroisoquinoline hydrochloride]		< 25 µM
CC1Cc2ccccc2C(N)=N1 (centres unmarked) [Example 49, 1-Amino-3-methyl-3,4-dihydroisoquinoline hydroiodide]		< 25 µM
